pIC50: −log10 of the molar value. Like-named read-outs stand apart in the source and are kept apart here.
How the values were obtained:
LSD1 [1] = molecular target: T1, LSD1 (Homo sapiens, UniProt O60341); design: method as in PMID 30448189; settings: cited from earlier work
LSD1 [2] = molecular target: T1, LSD1; test: LSD1 enzyme inhibition assay (H3K4me2 substrate, Amplex Red/HRP fluorescence)
LSD1 [3] = molecular target: T1, LSD1; settings: cited from earlier work

melting point	pIC50 (LSD1 [2])	SMILES	further results
163 to 164 °C		COc1cc(Br)c(/C=C/c2ccc(C(=O)NO)cc2)cc1OC	
159 to 160 °C		COc1cc(F)c(/C=C/c2ccc(C(=O)NO)cc2)cc1OC	
		N/C(=N\O)c1cccc(/C=C/c2ccnc(-c3cc(F)ccc3O)c2)c1 [Compound 22]	binding site by enzyme kinetics studies (LSD1 [1]): FAD region
205 to 206 °C	5.38	COc1ccc(/C=C/c2ccc(/C=C/C(=O)NO)cc2)cc1OC [Compound 24]	
185 to 186 °C	5.48	COc1cc(F)c(/C=C/c2ccc(/C=C/C(=O)NO)cc2)cc1OC [Compound 25]	
149 to 150 °C	5.29	COc1cc(/C=C/c2ccc(/C=C/C(=O)NO)cc2)cc(OC)c1 [Compound 26]	
120 to 121 °C	5.40	COc1cc(Br)c(/C=C/c2ccc(/C=C/C(=O)NO)cc2)cc1OC [Compound 27]	
	6.16	COc1cc(/C=C/c2ccc(C(=O)NO)cc2)cc(OC)c1 [Compound 29]	
197 to 198 °C	6.09	COc1ccc(/C=C/c2ccc(C(=O)NO)cc2)cc1OC [Compound 30]	
266 to 267 °C	5.89	O=C(NO)c1ccc(/C=C/c2cc(F)cc(F)c2)cc1 [Compound 31]	
193 to 194 °C	5.71	O=C(NO)c1ccc(/C=C/c2ccc3c(c2)CCO3)cc1 [Compound 33]	
		O=C(O)c1ccc(CN2CCC(CN[C@@H]3C[C@H]3c3ccccc3)CC2)cc1 [GSK2879552]	pIC50 (LSD1 [3]; inhibition of LSD1): 7.70
		Cc1ccc(-c2ncc(OC[C@@H]3CCNC3)cc2-c2ccc(C#N)cc2)cc1 [GSK-354]	pIC50 (LSD1 [3]; reversible LSD1 inhibitor): 7.05
		C#CCN(C)Cc1ccccc1 [pargyline]	inhibitory effect on LSD1 (LSD1 [3]; MAO inhibitors bonding covalently with FAD): no significant inhibitory effect; selectivity (LSD1 [3]; MAO inhibitors): poor selectivity

From paper PMC6943670, “Investigating the Binding Mode of Reversible LSD1 Inhibitors Derived from Stilbene Derivatives by 3D-QSAR, Molecular Docking, and Molecular Dynamics Simulation” (Molecules, 2019)
